Patent US4661297A, “Basic ethers of 7-oxo-7H-benzo(c) fluorene and a process for their production” (SPOFA, spojene podniky pro zdravotnickou vyrobu, priority 1980, dated 1987)
Where “and” joins values, the source holds several entries; their conditions need not be identical. Identical values can stand only once. Entries after “also recorded” stand apart in the source; their conditions may differ. Like-named read-outs stand apart in the source and are kept apart here.

Assays:
[1] = tested on: haemagglutinins (antibody formation); experiment: Haemagglutinin titre in mouse serum after ram erythrocyte immunization; format: in vivo; conditions: for Haemagglutinins % of control titre / Haemagglutinins titre: day 9; for Haemagglutinins titre: control 343
Description: (§1) Haemagglutanin and haemolysin titres in mouse serum on day 9 after ram
(§2) immunization under effect of substance 13468. Substance injected
(§3) either for 5 days (2 days before, on day of, 2 days after immunization)
(§4) (2 days before, on day of, 8 days after immunization). Groups of 12
(§5) expressed by mean value of highest attenuation of serum eliciting

Ehrlich tumor = experiment: Inhibition of incorporation of labelled substrate in Ehrlich tumor; format: cell-based; conditions: Mus musculus, substrate L-(U-14C) amino acid mixture
Yoshida's Tumor = experiment: Inhibition of incorporation of labelled substrates in Yoshida's tumor; format: cell-based; conditions: Rattus norvegicus, read-out: IC50
Description: Tumor growth may be observed clinically or in experiments in vivo, that is, with experimental animals, or in vitro, for example, in tissue cultures prepared from tumors. Assessment of tumor growth may be effected by measuring the weight of the tumor mass or, more effectively, by measuring the radioactivity after incorporation therein of certain substances of natural origin such as amino acids, adenine, thymidine and the like labelled with radioactive atoms such as ^14 C, ^3 H, etc.
Thus, by way of exemplification, the IC^50 values (inhibitory concentration which lowered the initial rate of ^14 C incorporation to 50% of control) are shown in Table VI, below (Yoshida's Tumor, (U-^14 C) amino acid mixture)
The ^IC 50 values of compound 13468 are also shown in Table VII with varying substrates.

Acute toxicity in mice = conditions: mouse, in vivo, mice S, males 22-24 gram
Description: The anti-tumor compounds described herein have also been studied from the standpoint of toxicity and the conclusion drawn that they are not toxic to mammalian hosts. The toxicological data set forth in Table IX, below, supports this conclusion.

[2] = tested on: haemolysins (antibody formation); experiment: Haemolysin titre in mouse serum after ram erythrocyte immunization; format: in vivo; conditions: day 9; for Haemolysins titre: control 37
Description: as §1, §2, §3, §4, §5

[3] = tested on: human myelogenous leukemia cells; experiment: DNA biosynthesis inhibition in human myelogenous leukemia cells; format: cell-based
[4] = tested on: Ehrlich's ascitic carcinoma; experiment: Incorporation of 14C-adenine and 14C-valine into cellular fraction of Ehrlich's ascitic carcinoma in vitro; format: cell-based, mouse; conditions: for Radioactivity incorporation, adenine: control 1060 cpm; for Radioactivity incorporation, valine: control 2455 cpm; for IC50 / activity at 75 µM / activity at 150 µM / activity at 18.75 µM / activity at 37.5 µM: Mus musculus, Ehrlich
Description: In Table 4, the effect of Tiloron (NSC 143969; 2,7-bis-[2-(diethylamino)ethoxy]fluorene-9-one) and 5-(2-dimethylaminoethoxy)-7-oxo-7H-benzo(c) fluorene hydrochloride are compared on incorporation of ^14 C-adenine and ^14 C-valine with the cellular fraction of Ehrlich's ascitic carcinoma (insoluble in trichloacetic acid). The tests in vitro reveal that the composition of the invention was more than 10 times as effective as Tiloron. The inhibition of incorporation of adenine and valine into the used system of tumor cells is considered as an indication of an anti-tumorous, cytostatic action. This biological activity of the described compound is considerably greater than that of its congener Tiloron. (See also Table 4.)
Effects of Tiloron and substance 13468 on incorporation of ^14
C-adenine and ^14 C-valine
into cellular fraction of Ehrlichs ascitic carcinoma, insoluble in
in vitro. Radioactivity incorporation expressed in cpm.
IC50 = concentration inhibiting incorporation by 50 percent.

**Q.** With `CN(C)CCOc1cc2c(c3ccccc13)-c1ccccc1C2=O.Cl` [compound 13468, 5-(2-Dimethylaminoethoxy)-7-oxo-7H-benzo(c) fluorene hydrochloride] as the molecule, how does the “Immunosuppressive effect on antibody formation” value ([1]; mice, in words, hydrochloride) read?
**A.** immunosuppressive effects on antibody formation in mice; also recorded: inhibition of the formation of immunological serum anti-bodies

**Q.** What about the “Haemagglutinins % of control titre” value ([1]; s.c. 5×8 mg/kg) of the same molecule?
**A.** 71%

**Q.** What about the Haemagglutinins titre ([1]; s.c. 5×8 mg/kg) of the same molecule?
**A.** 243

**Q.** What about the “Haemagglutinins % of control titre” value ([1]; s.c. 5×40 mg/kg) of the same molecule?
**A.** 3.5%

**Q.** And the Haemagglutinins titre ([1]; s.c. 5×40 mg/kg)?
**A.** 12

**Q.** And the “Haemagglutinins % of control titre” value ([1]; s.c. 11×8 mg/kg)?
**A.** 71%

**Q.** And the Haemagglutinins titre ([1]; s.c. 11×8 mg/kg)?
**A.** 243

**Q.** And the “Haemagglutinins % of control titre” value ([1]; s.c. 11×40 mg/kg, Suppressed)?
**A.** under 2.9%

**Q.** What about the Haemagglutinins titre ([1]; s.c. 11×40 mg/kg, Suppressed) of the same molecule?
**A.** under 10

**Q.** And the IC50 (Ehrlich tumor)?
**A.** 31 µM

**Q.** And the IC50 (Yoshida's Tumor; substrate 5-iodo-2-deoxy(6-3H) uridine)?
**A.** 12 µM

**Q.** And the IC50 (Yoshida's Tumor; substrate (6-3H) uridine)?
**A.** 36 µM and 12.6 µg/mL

**Q.** What about the IC50 (Yoshida's Tumor; substrate (thymine U-14C) thymidine) of the same molecule?
**A.** 4 µM

**Q.** And the IC50 (Yoshida's Tumor; substrate L-(U-14)leucine)?
**A.** 29 µM

**Q.** And the IC50 (Yoshida's Tumor; substrate L-(U-14C) amino acid mixture, Table VII)?
**A.** 32 µM

**Q.** What about the LD50 (Acute toxicity in mice; iv, intravenously) of the same molecule?
**A.** 90 mg/kg

**Q.** And the LD50 (Acute toxicity in mice; po, orally)?
**A.** 600 mg/kg

**Q.** What about the LD50 (Acute toxicity in mice; sc, subcutaneously) of the same molecule?
**A.** 490 mg/kg

**Q.** What about the “Haemolysins % of control titre” value ([2]; s.c. 5×8 mg/kg) of the same molecule?
**A.** 132%

**Q.** What about the Haemolysins titre ([2]; s.c. 5×8 mg/kg) of the same molecule?
**A.** 49

**Q.** And the “Haemolysins % of control titre” value ([2]; s.c. 5×40 mg/kg)?
**A.** under 27%

**Q.** And the Haemolysins titre ([2]; s.c. 5×40 mg/kg, Suppressed)?
**A.** under 10

**Q.** What about the “Haemolysins % of control titre” value ([2]; s.c. 11×8 mg/kg) of the same molecule?
**A.** under 27%

**Q.** And the Haemolysins titre ([2]; s.c. 11×8 mg/kg, Suppressed)?
**A.** under 10

**Q.** And the “Haemolysins % of control titre” value ([2]; s.c. 11×40 mg/kg)?
**A.** under 27%

**Q.** What about the Haemolysins titre ([2]; s.c. 11×40 mg/kg, Suppressed) of the same molecule?
**A.** under 10

**Q.** And the IC50 [3]?
**A.** 5 µM

**Q.** And the “Radioactivity incorporation, adenine” value ([4]; 75 μM)?
**A.** 266 cpm

**Q.** What about the “Radioactivity incorporation, valine” value ([4]; 75 μM) of the same molecule?
**A.** 887 cpm

**Q.** What about the “Radioactivity incorporation, adenine” value ([4]; 150 μM) of the same molecule?
**A.** 59 cpm

**Q.** And the “Radioactivity incorporation, valine” value ([4]; 150 μM)?
**A.** 349 cpm

**Q.** And the “Radioactivity incorporation, adenine” value ([4]; 18,75 μM)?
**A.** 757 cpm

**Q.** And the “Radioactivity incorporation, valine” value ([4]; 18,75 μM)?
**A.** 2394 cpm

**Q.** What about the “Radioactivity incorporation, adenine” value ([4]; 37,5 μM) of the same molecule?
**A.** 714 cpm

**Q.** What about the “Radioactivity incorporation, valine” value ([4]; 37,5 μM) of the same molecule?
**A.** 2253 cpm

**Q.** What about the IC50 ([4]; read-out: IC50 (concentration inhibiting incorporation by 50 percent), adenine) of the same molecule?
**A.** 53 µM

**Q.** What about the IC50 ([4]; read-out: IC50 (concentration inhibiting incorporation by 50 percent), valine) of the same molecule?
**A.** 65 µM

**Q.** And the activity at 75 µM ([4]; 75 μM, read-out: Incorporation of adenine relative to control (0 μM = 100%))?
**A.** 25%

**Q.** And the activity at 75 µM ([4]; 75 μM, read-out: Incorporation of valine relative to control (0 μM = 100%))?
**A.** 36%

**Q.** And the activity at 150 µM ([4]; 150 μM, read-out: Incorporation of adenine relative to control (0 μM = 100%))?
**A.** 6%

**Q.** What about the activity at 150 µM ([4]; 150 μM, read-out: Incorporation of valine relative to control (0 μM = 100%)) of the same molecule?
**A.** 14%

**Q.** And the activity at 18.75 µM ([4]; 18,75 μM, read-out: Incorporation of adenine relative to control (0 μM = 100%))?
**A.** 71%

**Q.** What about the activity at 18.75 µM ([4]; 18,75 μM, read-out: Incorporation of valine relative to control (0 μM = 100%)) of the same molecule?
**A.** 98%

**Q.** And the activity at 37.5 µM ([4]; 37,5 μM, read-out: Incorporation of adenine relative to control (0 μM = 100%))?
**A.** 87%

**Q.** And the activity at 37.5 µM ([4]; 37,5 μM, read-out: Incorporation of valine relative to control (0 μM = 100%))?
**A.** 92%

**Q.** What about the “times as effective as Tiloron” value ([4]; adenine and valine incorporation, in vitro) of the same molecule?
**A.** more than 10 times
